Among the test systems are A498 renal; IGROV1 ovarian; OVCAR-4 ovarian; MOLT-4 leukemia; SK-OV-3 ovarian; NCI-H460 lung; SK-MEL-2 melanoma; LOX IMVI melanoma; KM12 colon; HCC-2998 colon.
Common to all, as to experiment: DTP human tumour cell line panel, 48 h

We go through twelve compounds from PubChem BioAssay (NCI).

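Compound exposure: 48 hours, 5 concentrations, 96-well plates. At the GI50, growth is halved. TGI denotes the concentration required for complete inhibition of growth.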

`O=C(O)CCC(=O)c1ccc[nH]1`: the TGI with A498 renal, in the assay on IGROV1 ovarian, in the assay with OVCAR-4 ovarian, in the assay with MOLT-4 leukemia, in the assay on SK-OV-3 ovarian and in the assay on NCI-H460 lung was over 100 µM throughout. For the same compound, the TGI with SK-MEL-2 melanoma, in the assay with LOX IMVI melanoma and with KM12 colon was over 100 µM each time.
For the compound `N#Cc1c(NN)n(C2OC(CO)C(O)C2O)c2ncnc(N)c12` (configuration not stated), the GI50 with HCC-2998 colon was 0.292 µM; in the assay with IGROV1 ovarian, 0.057 µM; with OVCAR-4 ovarian it was 0.0538 µM; with MOLT-4 leukemia, 0.095 µM; in the assay on SK-OV-3 ovarian, 0.198 µM; in the assay with NCI-H460 lung, 0.032 µM. In addition, the GI50 with SK-MEL-2 melanoma is 0.282 µM; in the assay on LOX IMVI melanoma it was 0.0513 µM; with KM12 colon, 0.0874 µM. Further, the TGI with HCC-2998 colon is 2.41 µM; in the assay with IGROV1 ovarian, 0.348 µM; in the assay with OVCAR-4 ovarian, 3.24 µM; in the assay with MOLT-4 leukemia, 0.402 µM; in the assay with SK-OV-3 ovarian, 0.722 µM; with NCI-H460 lung it was 0.412 µM. Further, the results for the TGI with SK-MEL-2 melanoma, with LOX IMVI melanoma and in the assay on KM12 colon were 0.946 µM, 0.328 µM and 1.72 µM, respectively.
As to `O=C(O)C1C2C=CC(O2)C1C(=O)NCc1ccccn1` (configuration not stated), the TGI in the assay with A498 renal, in the assay with IGROV1 ovarian, in the assay on OVCAR-4 ovarian, with MOLT-4 leukemia, in the assay on SK-OV-3 ovarian and with NCI-H460 lung was over 100 µM each time. Also, the TGI in the assay on SK-MEL-2 melanoma, with LOX IMVI melanoma and with KM12 colon was over 100 µM throughout.
As for `CCCN=C(N)NC#N`, the TGI in the assay on HCC-2998 colon, in the assay on A498 renal, in the assay on IGROV1 ovarian, in the assay on OVCAR-4 ovarian, in the assay on MOLT-4 leukemia and in the assay on SK-OV-3 ovarian was over 100 µM each time. Moreover, the TGI with NCI-H460 lung, in the assay on SK-MEL-2 melanoma and in the assay with KM12 colon was over 100 µM in each case.
As for `COc1ccc(C(C)=O)cc1N1C(=O)C2C(C1=O)C1(c3ccccc3)C(=O)C2(c2ccccc2)C(c2ccc(C)cc2)=C1c1ccc(C)cc1` (configuration not stated), the GI50 in the assay on HCC-2998 colon, in the assay with IGROV1 ovarian, in the assay with OVCAR-4 ovarian, with MOLT-4 leukemia, with SK-OV-3 ovarian and with NCI-H460 lung was over 100 µM in each case. In addition, the GI50 in the assay with SK-MEL-2 melanoma, with LOX IMVI melanoma and in the assay with KM12 colon was over 100 µM in each case. The TGI in the assay on HCC-2998 colon, in the assay with IGROV1 ovarian, in the assay on OVCAR-4 ovarian, in the assay with MOLT-4 leukemia, in the assay on SK-OV-3 ovarian and in the assay on NCI-H460 lung was over 100 µM each time. Moreover, the TGI with SK-MEL-2 melanoma, with LOX IMVI melanoma and in the assay on KM12 colon was over 100 µM each time.
In the case of `CC(C)(C)CC(C)(C)c1cc2c(O)c(c1)Cc1cc(C(C)(C)CC(C)(C)C)cc(c1O)Cc1cc(C(C)(C)CC(C)(C)C)cc(c1O)Cc1cc(C(C)(C)CC(C)(C)C)cc(c1O)C2`, the TGI in the assay with HCC-2998 colon, in the assay with IGROV1 ovarian, with OVCAR-4 ovarian, with MOLT-4 leukemia, in the assay with NCI-H460 lung and with SK-MEL-2 melanoma was over 100 µM each time. Also, in the assay on KM12 colon, the TGI was over 100 µM.
Take `CN(C)/C=N/c1nc2c(ncn2C2OC(CO)C(O)C2O)c(=O)[nH]1` (configuration not stated): the TGI with HCC-2998 colon, with A498 renal, in the assay on IGROV1 ovarian, in the assay with OVCAR-4 ovarian, in the assay on MOLT-4 leukemia and with SK-OV-3 ovarian was over 100 µM in each case. The concentration for total growth inhibition (TGI) in the assay on NCI-H460 lung, in the assay with SK-MEL-2 melanoma and with KM12 colon was over 100 µM throughout.
With `Cc1cc(CC(O)c2ccc(Cl)c(Cl)c2)nc(=O)[nH]1` (configuration not stated), the TGI in the assay on A498 renal, with OVCAR-4 ovarian, in the assay on SK-OV-3 ovarian, in the assay on NCI-H460 lung, in the assay with SK-MEL-2 melanoma and with KM12 colon was over 100 µM throughout.
As to `N#Cc1nc(Nc2cccc3ccccc23)sc1N`, the TGI in the assay on HCC-2998 colon was 41.2 µM; in the assay with IGROV1 ovarian, over 100 µM; in the assay with OVCAR-4 ovarian it was over 100 µM; in the assay on MOLT-4 leukemia it was over 100 µM; with SK-OV-3 ovarian, over 100 µM; in the assay with NCI-H460 lung, over 100 µM. Moreover, the TGI in the assay with SK-MEL-2 melanoma is 79.2 µM; in the assay with LOX IMVI melanoma it was 33.4 µM; with KM12 colon, over 100 µM.
With `NC(=Nc1c([N+](=O)[O-])cnc2ccccc12)N1CCOCC1`, the TGI in the assay on A498 renal, in the assay with IGROV1 ovarian, with OVCAR-4 ovarian, in the assay with MOLT-4 leukemia, in the assay with SK-OV-3 ovarian and with NCI-H460 lung was over 100 µM each time. Besides, the TGI with SK-MEL-2 melanoma, in the assay on LOX IMVI melanoma and in the assay on KM12 colon was over 100 µM in each case.
Turning to `CCCCCCCCCCCCCC1=NC(C)(C)CN1C(C)C`, the GI50 in the assay with HCC-2998 colon is 1.41 µM; with A498 renal, 2.16 µM; in the assay with IGROV1 ovarian, 1.08 µM; in the assay with OVCAR-4 ovarian it was 1.76 µM; with MOLT-4 leukemia, 1.56 µM; in the assay with SK-OV-3 ovarian, 1.79 µM. The GI50 in the assay with NCI-H460 lung was 1.89 µM; with SK-MEL-2 melanoma it was 1.88 µM; in the assay with KM12 colon, 1.65 µM. The TGI stood at 2.74 µM in the assay with HCC-2998 colon; 4.58 µM in the assay on A498 renal; 2.26 µM with IGROV1 ovarian; 3.48 µM in the assay with OVCAR-4 ovarian; 3.26 µM in the assay with MOLT-4 leukemia; 3.17 µM in the assay on SK-OV-3 ovarian. The results for the TGI in the assay with NCI-H460 lung, with SK-MEL-2 melanoma and in the assay on KM12 colon were 3.3 µM, 3.39 µM and 3.01 µM, respectively.
Turning to `CC(C)c1ccc2c(c1)CC[C@@H]1[C@@](C)(C(=O)O)CCC[C@]21C`, the GI50 in the assay on HCC-2998 colon was 6.07 µM; with IGROV1 ovarian, 5.55 µM; with OVCAR-4 ovarian, 4.23 µM; in the assay with SK-OV-3 ovarian, 4.49 µM; in the assay with NCI-H460 lung, 5.07 µM; in the assay on SK-MEL-2 melanoma, 2.91 µM. The GI50 with LOX IMVI melanoma was 3.43 µM; in the assay on KM12 colon, 5.44 µM. Also, the TGI in the assay with HCC-2998 colon amounted to 22.3 µM; in the assay on IGROV1 ovarian, 29 µM; in the assay on OVCAR-4 ovarian it was 10.8 µM; in the assay on SK-OV-3 ovarian it was 21.4 µM; with NCI-H460 lung it was 18.4 µM; in the assay with SK-MEL-2 melanoma, 16.1 µM. Moreover, the TGI in the assay on LOX IMVI melanoma came to 16.8 µM; in the assay with KM12 colon it was 19.5 µM.

As a reminder, the TGI is the concentration giving total growth inhibition. High values mean less potent growth arrest, low ones more potent growth arrest. The term GI50 denotes the concentration that inhibits growth by half.
